# According to patent US20060008378A1, “Sterilization method” (priority 2004, published 2006):
# System: bacillus used as an index (biological-indicator)
# Conditions: 15 g of 35% hydrogen peroxide solution vaporized in 3 minutes, about 0.8 m^3 isolator, peak about 1300 ppm, closed state until 1200 seconds
# Protocol: In this Example, the above-mentioned injector 14 is controlled so that hydrogen peroxide solution is continuously dropped for 3 minutes at a flow rate of 5 g/min, and the dropped hydrogen peroxide solution changes to hydrogen peroxide vapor by flash evaporation in an evaporator 12 in an instant.
smiles,measurement,value
"OO [hydrogen peroxide vapor, hydrogen peroxide]",effect of sterilization (culturing the biological-indicator after sterilization),multiplication of the bacillus used as an index is not recognized
